The test system of this assay is blood cells. As to the kind of experiment: Hemolysis of blood cells on blood retention tool (plasma colored red with Hb). As to conditions: tools of Example 4 / Comparative Example 4; glycine as 5% solution. The class given is cell-based. As to the method:
Blood cell separation was carried out using this tool, and the presence or absence of hemolysis was determined. In the following, unless otherwise stated, the concentration (%) of a hemolysis inhibitor in a hemolysis inhibitor solution is represented by a percentage (unit: (w/v) %) of the weight (unit: g) of the hemolysis inhibitor with respect to the volume (100 ml) of a solvent.
Hemolysis inhibitors were dissolved in solvents (distilled water) beforehand to prepare hemolysis inhibitor solutions shown in Table 1 below. […]
On the glass filter surface of each of the thus-obtained blood retention tools, 100 μl of whole blood (hematocrit: 38%) was dropped to cause the separation of blood cells and plasma and the development of the plasma. Then, after a lapse of 2 minutes, the presence or absence of hemolysis of the blood cells was determined. […]
Blood retention tools (Example 3-1 and 3-2) were produced in the same manner as in Example 1, except that the following development porous membranes (a filter paper and a cellulose acetate membrane) and blood cell separation porous membranes (glass filters) were used and valine was used as the hemolysis inhibitors. […] Using these blood retention tools, blood cell separation was carried out and the presence or absence of hemolysis and the development of blood cells were determined in the same manner as in Examples 1 and 2.

Each structure is given as a SMILES string.

In the case of `NCC(=O)O` [Gly, glycine], the hemolysis entry was “occurrence of hemolysis was observed”.
